Test results published in ChEMBL document CHEMBL5058564, “EUbOPEN Chemogenomics Library 2 (Incucyte)” (2022).

Legend:
Type in all cases: toxicity, cell-based
Fibroblast = experiment: Incucyte cell viability with human fibroblast; conditions: 10 µM, compound concentration 10 uM
U2OS = experiment: Incucyte cell viability with U2OS; conditions: human, 10 µM, compound concentration 10 uM
HEK-293T = experiment: Incucyte cell viability with HEK293T; conditions: human, 10 µM, compound concentration 10 uM
[1] = 0 h, replicate number 1, timepoint 0 hours
[2] = 0 h, replicate number 2, timepoint 0 hours
[3] = 24 h, replicate number 1, timepoint 24 hours
[4] = 18 h, replicate number 1, timepoint 18 hours
[5] = 18 h, replicate number 2, timepoint 18 hours
[6] = 24 h, replicate number 2, timepoint 24 hours
[7] = 6 h, replicate number 1, timepoint 6 hours
[8] = 12 h, replicate number 1, timepoint 12 hours
[9] = 12 h, replicate number 2, timepoint 12 hours
[10] = 6 h, replicate number 2, timepoint 6 hours
Also: unitless GR value; below 1 slowed growth and below 0 cell loss.

SMILES | Growth Rate (Fibroblast; [1]) | Growth Rate (Fibroblast; [2]) | Growth Rate (Fibroblast; [3]) | Growth Rate (U2OS; [4]) | Growth Rate (U2OS; [5]) | Growth Rate (U2OS; [6]) | Growth Rate (HEK-293T; [1]) | Growth Rate (HEK-293T; [2]) | Growth Rate (HEK-293T; [7]) | Growth Rate (HEK-293T; [8]) | Growth Rate (HEK-293T; [4]) | Growth Rate (HEK-293T; [3]) | Growth Rate (Fibroblast; [7]) | Growth Rate (Fibroblast; [8]) | Growth Rate (U2OS; [1]) | Growth Rate (U2OS; [7]) | Growth Rate (U2OS; [8]) | Growth Rate (U2OS; [3]) | Growth Rate (U2OS; [2]) | other results
Cc1cc(C)cc([C@@H]2c3cc(C)ccc3NC(=O)CN2C(=O)c2ccc(Br)s2)c1 | 0.17 | 0.74 | 1 | 0.98 | 0.81 | 0.89 | 0.35 | 0.57 | 0.88 | 0.65 | 0.61 | 0.46 | – | – | – | – | – | – | – | Growth Rate (HEK-293T; [9]): 0.79; Growth Rate (HEK-293T; [5]): 0.69; Growth Rate (HEK-293T; [6]): 0.7
Cc1cc(C)cc([C@H]2c3cc(C)ccc3NC(=O)CN2C(=O)c2ccc(Br)s2)c1 | 0.07 | 0.88 | 0.33 | 0.52 | 0.88 | 0.94 | -0.3 | 0.03 | 0.95 | 0.79 | 0.58 | 0.65 | 0.06 | 0.6 | -0.56 | 0.12 | 0.65 | 0.67 | – | Growth Rate (Fibroblast; [9]): 0.64; Growth Rate (Fibroblast; [4]): 0.44; Growth Rate (Fibroblast; [6]): 0.97; Growth Rate (HEK-293T; [9]): 0.81; Growth Rate (HEK-293T; [5]): 0.92; Growth Rate (HEK-293T; [6]): 0.83
CN(C)C(=O)Cn1cc(-c2ccc(-c3nnc4ccccn34)cc2)cn1 | 0.68 | 0.31 | 0.56 | 0.79 | 0.91 | – | 0.69 | – | 0.7 | 0.74 | 0.88 | 0.78 | – | 0.37 | -0.47 | 0.68 | 0.46 | 0.83 | 0.08 | Growth Rate (Fibroblast; [9]): 0.94; Growth Rate (Fibroblast; [4]): 0.8; Growth Rate (Fibroblast; [5]): 0.91; Growth Rate (Fibroblast; [6]): 0.74
Cc1cc(CN)cc(C)c1-c1ncn(C)c1-c1cncn1C | 0.66 | -0.16 | – | 0.74 | – | – | 0.03 | -0.09 | – | 0.88 | – | 0.89 | 0.41 | – | -0.39 | 0.65 | 0.71 | 0.73 | 0.16 | Growth Rate (U2OS; [10]): 0.66; Growth Rate (U2OS; [9]): 0.95
CC1=C(C)C(=O)C(C(C)(C)CC(=O)N(CCCCSC[C@H]2O[C@@H](n3cnc4c(N)ncnc43)[C@H](O)[C@@H]2O)Cc2cccc(-c3ccc(Cl)cc3)c2)=C(C)C1=O | 0.23 | -0.71 | – | 0.51 | 0.91 | 0.95 | -0.9 | -1 | 0.57 | 0.2 | 0.17 | 0.16 | -0.29 | 0.78 | – | 0.21 | 0.36 | 0.53 | – | Growth Rate (Fibroblast; [10]): 0.84; Growth Rate (U2OS; [10]): 0.98; Growth Rate (U2OS; [9]): 0.93
CC(C)Oc1ccc(-c2c[nH]cc2CN(C)CCO)cc1 | 0.53 | 0.41 | – | 0.71 | – | – | 0.59 | 0.6 | – | – | – | 1 | – | – | -0.46 | 0.97 | 0.45 | 0.94 | 0.69 | –
O=C1Nc2ccc(I)cc2/C1=C/c1cc(Br)c(O)c(Br)c1 | -0.2 | 0.15 | – | – | – | – | -0.08 | 0.11 | – | – | 0.97 | 0.91 | – | – | – | – | 0.89 | – | -0.15 | –
